# In patent publication US6737406B1, “Cryptic peptides and method for their identification” (Circassia, Ltd., priority 1996, dated 2004):
# Assays:
# T lymphocytes = experiment: Inhibition of T cell proliferation to FC1P peptides, tritiated thymidine incorporation (Example 5); format: cell-based; settings: added at 10^−6M or 10^−9M; freshly isolated T lymphocytes cultured with FC1P
# Procedure: Freshly isolated T lymphocytes were cultured in vitro with concentrations of FC1P peptides, previously determined as being optimal for the induction of proliferative and/or other responses in these cells. To certain of the culture wells were added, the glucocorticosteroid Dexamethazone or fluticazone, these were added to cultures at dilutions of 10^−6M or 10^−9M. After culture, cells were labelled with tritiated thymidine to enable quantification of DNA synthesis and thus cellular proliferation.
# [1] = test system: peripheral blood mononuclear cells; experiment: Primary proliferative response of freshly isolated PBMC to FC1P (Example 3); format: cell-based, human; settings: 10^5 cells per well, 6 days, cat allergic asthmatics (CAA) compared with non-cat allergic asthmatics (NCA)
# Procedure: Freshly isolated peripheral blood mononuclear cells were cultured at 10^5 cells per well for 6 days prior to labelling with tritiated thymidine for measurement of cellular proliferation.
# [2] = test system: volunteer cat-allergic asthmatic; experiment: Intradermal injection of FC1P into a volunteer cat-allergic asthmatic, lung function (Example 4); format: in vivo, human; settings: 40 μg FC1P intradermally into each forearm
# Procedure: 40 μg of highly purified FC1P peptides was injected intradermally into each forearm of a volunteer cat-allergic asthmatic. […] The drop in FEV1 was reversed by the administration of β2 agonist and inhaled corticosteroid at 8 hours. The results of this are shown diagrammatically in FIG. 6.
Compound,inhibition of T cell proliferation to FC1P peptides (tritiated thymidine incorporation) (T lymphocytes),"primary proliferative responses (cellular proliferation, tritiated thymidine) [1]",late-phase asthmatic reaction ([2]; cat-allergic asthmatic),time of late-phase asthmatic reaction after administration ([2]; cat-allergic asthmatic),Lung function (quantified as FEV1) ([2]; over the next several hours)
C[C@@H]1C[C@H]2[C@@H]3C[C@H](F)C4=CC(=O)C=C[C@]4(C)[C@@]3(F)[C@@H](O)C[C@]2(C)[C@@]1(O)C(=O)SCF [fluticazone],inhibition of T cell proliferation,–,–,–,–
C[C@@H]1C[C@H]2[C@@H]3CCC4=CC(=O)C=C[C@]4(C)[C@@]3(F)[C@@H](O)C[C@]2(C)[C@@]1(O)C(=O)CO [dexamethazone],inhibition of T cell proliferation,–,–,–,–
"FC1P: three synthetic peptides derived from the sequence of Fel d I, collectively FC1P (SEQ ID NO:23, 5 and 24) (chain 1 LFLTGTPDEYVEQVAQY; chain 2 EQVAQYKALPVVLENA; chain 3 KALPVVLENARILKNCV; listed as Felis domesticus)",–,greater primary proliferative responses,induced an isolated late-phase asrimatic reaction,approximately three,fell and remained low
